Experiment [1] deals with N^α -acetyltransferase activity of crude yeast lysate, wild-type (AAA1) strain T3A. As to the kind of experiment: N^α -acetylation of peptide substrates by crude yeast lysate, wild-type strain. The class given is biochemical, Saccharomyces cerevisiae. Particulars: for Activity (%) AAA1: crude lysate of wild-type strain T3A, mean ± SD (N=3-5), normalized to human adrenocorticotropic hormone (1-24), 50 μM peptide. On the procedure: (§1) N^α -acetyltransferase activity was determined as previously described [Lee et al., J. Biol. Chem. 263:14948-14955 (1988)]. Aliquots of the lysate or chromatographic fractions were added to 1.5 ml Eppendorf tubes containing a reaction mixture of 50 mM HEPES, pH 7.4, 150 mM KCl, 1 mM DTT, 25 μM [^3 H] acetyl coenzyme A (0.5 μCi) and 50 μM synthetic peptide with an adjusted final volume of 100 μl. The assay mixture was incubated at 30° C. for 30 min. The reaction was stopped by adding 17 μl of 0.5M acetic acid and chilled in an ice bath. The reaction samples were filtered through SP membrane discs (Cuno) (previously pre-swollen in 0.5M acetic acid), and then washed three times with 1 ml of 0.5M acetic acid on a Millipore 1225 sampling manifold. The partially dried membranes were placed in scintillation cocktail and counted with a Beckman LS 3801 scintillation counter. One unit of activity was defined as the amount of enzyme able to transfer 1 pmol of [^3 H] acetyl group from [^3 H] acetyl coenzyme A to synthetic peptide per min under standard enzyme assay conditions defined above.
(§2) The wild-type (containing endogenous N^α -acetyltransferase activity) and the aaa1 (lacking endogenous N^α -acetyltransferase activity) strains were T3A and T3A-a, respectively (Lee, F-J. S., et al., J. Bacteriol. 171, 5795-5802 (1989)). Human adrenocorticotropic hormone (1-24), yeast alcohol dehydrogenase (1-24), and human superoxide dismutase (1-24) have either serine or alanine as amino-terminal residues, while proteinase A inhibitor 3 has a methionine residue. The synthesis of the peptide substrates, the preparation of the crude yeast homogenate, and the assay of enzyme activity were as previously described by Lee et al. (Lee, F-J. S., et al., J. Biol. Chem. 263:14948 (1988); Kamitani, K., et al., J. Biol. Chem. 264:13188 (1989)). The numbers in parentheses refer to the residue numbers, and the letters in parentheses specify the amino acid sequence. Abbreviations: A (alanine), C (cysteine), D (aspartic acid), E (glutamic acid), F (phenylalanine), G (glycine), H (histidine), I (isoleucine), K (lysine), L (leucine), M (methionine), N (asparagine), P (proline), Q (glutamine), R (arginine), S (serine), T (threonine), V (valine), W (tryptophan). Data are reported as mean activity±SD (N=3-5) and are normalized to the activity of the homogenate towards human adrenocorticotropic hormone (1-24).

The target of experiment [2] is T1, N^α -acetyltransferase activity of crude yeast lysate, aaa1 mutant strain T3A-a (Saccharomyces cerevisiae, UniProt Q06504).
T1 construct: a crude yeast homogenate from the aaa1 mutant strain; endogenous in cells; host or cells: Saccharomyces cerevisiae strain T3A-a (aaa1), crude lysate
T1 sequence (Q06504 1-195): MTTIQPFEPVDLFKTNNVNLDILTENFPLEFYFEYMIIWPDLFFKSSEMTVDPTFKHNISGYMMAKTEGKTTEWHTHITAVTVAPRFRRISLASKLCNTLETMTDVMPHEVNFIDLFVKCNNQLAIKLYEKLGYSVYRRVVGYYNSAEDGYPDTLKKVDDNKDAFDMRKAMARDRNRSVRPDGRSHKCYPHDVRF
T1 sequence (Q12387 1-796 partner): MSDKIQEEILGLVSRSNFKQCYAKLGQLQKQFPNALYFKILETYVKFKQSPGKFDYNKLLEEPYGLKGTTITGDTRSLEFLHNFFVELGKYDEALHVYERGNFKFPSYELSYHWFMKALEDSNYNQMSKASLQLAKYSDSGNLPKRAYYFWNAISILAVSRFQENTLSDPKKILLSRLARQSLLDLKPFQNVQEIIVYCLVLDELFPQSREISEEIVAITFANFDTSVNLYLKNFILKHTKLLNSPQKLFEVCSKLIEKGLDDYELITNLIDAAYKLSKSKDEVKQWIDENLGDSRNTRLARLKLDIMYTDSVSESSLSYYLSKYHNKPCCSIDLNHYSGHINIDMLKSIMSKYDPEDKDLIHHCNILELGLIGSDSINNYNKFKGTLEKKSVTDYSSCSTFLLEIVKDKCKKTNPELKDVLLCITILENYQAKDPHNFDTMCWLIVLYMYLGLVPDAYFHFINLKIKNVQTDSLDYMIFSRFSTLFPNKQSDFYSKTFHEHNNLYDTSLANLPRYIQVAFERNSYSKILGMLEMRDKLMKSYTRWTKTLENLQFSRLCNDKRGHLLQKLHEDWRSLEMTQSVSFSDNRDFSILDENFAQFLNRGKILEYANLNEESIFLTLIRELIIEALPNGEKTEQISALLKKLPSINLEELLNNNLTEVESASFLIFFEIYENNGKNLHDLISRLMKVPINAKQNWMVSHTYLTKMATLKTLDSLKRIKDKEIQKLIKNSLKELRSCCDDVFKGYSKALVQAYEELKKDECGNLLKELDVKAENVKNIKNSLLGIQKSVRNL
As to the kind of experiment: N^α -acetylation of peptide substrates by crude yeast lysate, aaa1 mutant strain. In kind it is biochemical. Particulars: for Activity (%) aaa1: crude lysate of aaa1 mutant strain T3A-a, mean ± SD (N=3-5), normalized to human adrenocorticotropic hormone (1-24), 50 μM peptide. The protocol: as §1, §2

Regarding “MNTDQQKVSEIFQSSKEKLQGDAK (MNTDQQKVSEIFQSSKEKLQGDAK) [Proteinase A Inhibitor 3 (1-24) (Yeast)]”, the “Activity (%) AAA1” value in experiment [1] was 75 ± 5%. Further, the “acetylation of the peptide substrate by wild-type strain” value in experiment [1] (crude lysate, wild-type strain) is reported as “capable of acetylating”. Also, the “Activity (%) aaa1” value in experiment [2] was found to be 80 ± 5%. Also, the “acetylation of the peptide substrate by aaa1 mutant” value in experiment [2] (crude lysate, aaa1 mutant) was “capable of acetylating”.

In the case of “SYSMEHFRWGKPVGKKRRPVKVYP”, the “Activity (%) AAA1” value in experiment [1] is 100 ± 5%. In addition, in experiment [2], the “Activity (%) aaa1” value was 0%.

In the case of “SIPETQKGVIFYESHGKLEYKDIP (SIPETQKGVIFYESHGKLEYKDIP) [Alcohol dehydrogenase (1-24) (Yeast)]”, the “Activity (%) AAA1” value in experiment [1] is 102 ± 5%. Further, the “Activity (%) aaa1” value in experiment [2] was determined as 0%.

Values taken from patent publication US5223421A, “Identification of methionine Nα-acetyltransferase” (The General Hospital Corporation, priority 1990, dated 1993).
